ChEMBL document CHEMBL4177616, “Potent anti-melanogenic activity and favorable toxicity profile of selected 4-phenyl hydroxycoumarins in the zebrafish model and the computational molecular modeling studies” (Bioorg Med Chem, 2017)
The source made the active and inactive calls. No cut-off for these calls is given here.

What was measured:
Danio rerio [1] = species on record: Danio rerio; test: Toxicity in wild type zebrafish embryos assessed as eyes at 20 ug/ml treated for 96 hrs post fertilization starting from 6 hrs post fertilization by inverted microscopic analysis relative to control; format: organism-based; details: in vivo
Danio rerio [2] = species on record: Danio rerio; test: Toxicity in wild type zebrafish embryos assessed as skeletal deformities at 10 ug/ml treated for 96 hrs post fertilization starting from 6 hrs post fertilization by inverted microscopic analysis relative to control; format: organism-based; details: in vivo
Danio rerio [3] = species on record: Danio rerio; test: Toxicity in wild type zebrafish embryos assessed as teratogenic embryo at 50 ug/ml treated for 96 hrs post fertilization starting from 6 hrs post fertilization by inverted microscopic analysis relative to control; format: organism-based; details: in vivo
Danio rerio [4] = species on record: Danio rerio; test: Toxicity in wild type zebrafish embryos assessed as heart beat at 10 ug/ml treated for 96 hrs post fertilization starting from 6 hrs post fertilization by inverted microscopic analysis relative to control; format: organism-based; details: in vivo
Danio rerio [5] = species on record: Danio rerio; test: Anti-melanogenic activity in wild type zebrafish 24 hrs post fertilization embryos assessed as decrease in body pigmentation at 5 to 25 ug/ml after 48 hrs; format: functional, organism-based
Melanocyte [6] = test: Cytotoxicity against wild type zebrafish embryo melanocytes assessed as number of melanocyte at 2.5 mg/ml treated for 72 hrs post fertilization starting from 6 to 24 hrs post fertilization; format: cell-based, Danio rerio
Danio rerio [7] = species on record: Danio rerio; test: Toxicity in wild type zebrafish embryos assessed as heart beat at 25 ug/ml treated for 96 hrs post fertilization starting from 6 hrs post fertilization by inverted microscopic analysis relative to control; format: organism-based; details: in vivo
Danio rerio [8] = test: Toxicity in wild type zebrafish embryos assessed as pericardial edema at 10 ug/ml treated for 96 hrs post fertilization starting from 6 hrs post fertilization by inverted microscopic analysis relative to control; format: organism-based; details: in vivo
Danio rerio [9] = species on record: Danio rerio; test: Toxicity in wild type zebrafish embryos assessed as teratogenic embryo at 20 ug/ml treated for 96 hrs post fertilization starting from 6 hrs post fertilization by inverted microscopic analysis relative to control; format: organism-based; details: in vivo
Danio rerio [10] = species on record: Danio rerio; test: Toxicity in wild type zebrafish embryos assessed as blood circulation at 25 ug/ml treated for 96 hrs post fertilization starting from 6 hrs post fertilization by inverted microscopic analysis relative to control; format: organism-based; details: in vivo
Melanocyte [11] = test: Cytotoxicity against wild type zebrafish embryo melanocytes assessed as small and rounded cells at 12.5 ug/ml treated for 72 hrs post fertilization starting from 6 to 24 hrs post fertilization; format: cell-based, Danio rerio
Danio rerio [12] = species on record: Danio rerio; test: Toxicity in wild type zebrafish embryos assessed as heart beat at 20 ug/ml treated for 96 hrs post fertilization starting from 6 hrs post fertilization by inverted microscopic analysis relative to control; format: organism-based; details: in vivo
Danio rerio [13] = species on record: Danio rerio; test: Toxicity in wild type zebrafish embryos assessed as normal embryo at 10 ug/ml treated for 96 hrs post fertilization starting from 6 hrs post fertilization by inverted microscopic analysis relative to control; format: organism-based; details: in vivo
Danio rerio [14] = species on record: Danio rerio; test: Toxicity in wild type zebrafish embryos assessed as otoliths at 5 ug/ml treated for 96 hrs post fertilization starting from 6 hrs post fertilization by inverted microscopic analysis relative to control; format: organism-based; details: in vivo
Danio rerio [15] = species on record: Danio rerio; test: Toxicity in wild type zebrafish embryos assessed as teratogenic embryo at 10 ug/ml treated for 96 hrs post fertilization starting from 6 hrs post fertilization by inverted microscopic analysis relative to control; format: organism-based; details: in vivo
Danio rerio [16] = test: Toxicity in wild type zebrafish embryos assessed as pericardial edema at 20 ug/ml treated for 96 hrs post fertilization starting from 6 hrs post fertilization by inverted microscopic analysis relative to control; format: organism-based; details: in vivo
Danio rerio [17] = species on record: Danio rerio; test: Toxicity in wild type zebrafish embryos assessed as normal embryo at 50 ug/ml treated for 96 hrs post fertilization starting from 6 hrs post fertilization by inverted microscopic analysis relative to control; format: organism-based; details: in vivo
Danio rerio [18] = test: Toxicity in wild type zebrafish embryos assessed as yolk edema at 5 ug/ml treated for 96 hrs post fertilization starting from 6 hrs post fertilization by inverted microscopic analysis relative to control; format: organism-based; details: in vivo
Neutrophil = test: Cytotoxicity against mpx:GFP transgenic zebrafish 24 hrs post fertilization embryo neutrophils assessed as loss in neutrophil at 25 ug/ml relative to control; format: cell-based, Danio rerio
Danio rerio [19] = species on record: Danio rerio; test: Toxicity in wild type zebrafish embryos assessed as blood circulation at 5 ug/ml treated for 96 hrs post fertilization starting from 6 hrs post fertilization by inverted microscopic analysis relative to control; format: organism-based; details: in vivo
[20] = Toxicity in wild type zebrafish embryos assessed as dead embryo at 50 ug/ml treated for 96 hrs post fertilization starting from 6 hrs post fertilization by inverted microscopic analysis relative to control; format: organism-based, Danio rerio; details: in vivo, read-out: Activity
Danio rerio [21] = test: Toxicity in wild type zebrafish embryos assessed as yolk edema at 10 ug/ml treated for 96 hrs post fertilization starting from 6 hrs post fertilization by inverted microscopic analysis relative to control; format: organism-based; details: in vivo
Danio rerio [22] = species on record: Danio rerio; test: Toxicity in wild type zebrafish embryos assessed as teratogenic embryo at 5 ug/ml treated for 96 hrs post fertilization starting from 6 hrs post fertilization by inverted microscopic analysis relative to control; format: organism-based; details: in vivo
Danio rerio [23] = species on record: Danio rerio; test: Toxicity in wild type zebrafish embryos assessed as head malformation at 25 ug/ml treated for 96 hrs post fertilization starting from 6 hrs post fertilization by inverted microscopic analysis relative to control; format: organism-based; details: in vivo
Melanocyte [24] = test: Cytotoxicity against wild type zebrafish embryo melanocytes assessed as change in morphology; format: cell-based, Danio rerio
Danio rerio [25] = species on record: Danio rerio; test: Toxicity in wild type zebrafish embryos assessed as growth retardation at 10 ug/ml treated for 96 hrs post fertilization starting from 6 hrs post fertilization by inverted microscopic analysis relative to control; format: organism-based; details: in vivo
Danio rerio [26] = species on record: Danio rerio; test: Toxicity in wild type zebrafish embryos assessed as normal embryo at 5 ug/ml treated for 96 hrs post fertilization starting from 6 hrs post fertilization by inverted microscopic analysis relative to control; format: organism-based; details: in vivo
Danio rerio [27] = species on record: Danio rerio; test: Toxicity in wild type zebrafish embryos assessed as skeletal deformities at 25 ug/ml treated for 96 hrs post fertilization starting from 6 hrs post fertilization by inverted microscopic analysis relative to control; format: organism-based; details: in vivo
Danio rerio [28] = species on record: Danio rerio; test: Toxicity in wild type zebrafish embryos assessed as normal embryo at 20 ug/ml treated for 96 hrs post fertilization starting from 6 hrs post fertilization by inverted microscopic analysis relative to control; format: organism-based; details: in vivo
Danio rerio [29] = species on record: Danio rerio; test: Toxicity in wild type zebrafish embryos assessed as notochord at 20 ug/ml treated for 96 hrs post fertilization starting from 6 hrs post fertilization by inverted microscopic analysis relative to control; format: organism-based; details: in vivo
Danio rerio [30] = species on record: Danio rerio; test: Toxicity in wild type zebrafish embryos assessed as unhatched embryo at 20 ug/ml treated for 96 hrs post fertilization starting from 6 hrs post fertilization by inverted microscopic analysis relative to control; format: organism-based; details: in vivo
Melanocyte [31] = test: Cytotoxicity against wild type zebrafish embryo melanocytes assessed as barely visible cells at 12.5 ug/ml treated for 72 hrs post fertilization starting from 6 to 24 hrs post fertilization; format: cell-based, Danio rerio
[32] = Toxicity in wild type zebrafish embryos assessed as dead embryo at 5 ug/ml treated for 96 hrs post fertilization starting from 6 hrs post fertilization by inverted microscopic analysis relative to control; format: organism-based, Danio rerio; details: in vivo, read-out: Activity
Danio rerio [33] = test: Toxicity in wild type zebrafish embryos assessed as pericardial edema at 25 ug/ml treated for 96 hrs post fertilization starting from 6 hrs post fertilization by inverted microscopic analysis relative to control; format: organism-based; details: in vivo
Melanocyte [34] = test: Cytotoxicity against wild type zebrafish embryo melanocytes assessed as punctate cells at 12.5 ug/ml treated for 72 hrs post fertilization starting from 6 to 24 hrs post fertilization; format: cell-based, Danio rerio
Danio rerio [35] = species on record: Danio rerio; test: Toxicity in wild type zebrafish embryos assessed as notochord at 5 ug/ml treated for 96 hrs post fertilization starting from 6 hrs post fertilization by inverted microscopic analysis relative to control; format: organism-based; details: in vivo
Danio rerio [36] = test: Toxicity in wild type zebrafish embryos assessed as yolk edema at 25 ug/ml treated for 96 hrs post fertilization starting from 6 hrs post fertilization by inverted microscopic analysis relative to control; format: organism-based; details: in vivo
Danio rerio [37] = species on record: Danio rerio; test: Toxicity in wild type zebrafish embryos assessed as eyes at 10 ug/ml treated for 96 hrs post fertilization starting from 6 hrs post fertilization by inverted microscopic analysis relative to control; format: organism-based; details: in vivo

Compound	Activity (Danio rerio [1]) [%]	Activity (Danio rerio [2]) [%]	Activity (Danio rerio [3]) [%]	Activity (Danio rerio [4]) [%]	Activity (Danio rerio [5])	Activity (Melanocyte [6])	Activity (Danio rerio [7]) [%]	Activity (Danio rerio [8]) [%]	Activity (Danio rerio [9]) [%]	Activity (Danio rerio [10]) [%]	Activity (Melanocyte [11])	Activity (Danio rerio [12]) [%]	Activity (Danio rerio [13]) [%]	Activity (Danio rerio [14]) [%]	Activity (Neutrophil)	Activity (Melanocyte [24])	Activity (Melanocyte [31])	Activity (Danio rerio [33]) [%]	Activity (Melanocyte [34])	Activity (Danio rerio [36]) [%]	also measured
O=c1cc(-c2ccccc2)c2c(O)cc(O)cc2o1	0	0	25	0	Active	Non-Toxic	0	0	0	0	Non-Toxic	0	100	0	Non-Toxic	Dose-dependent effect and Tde	Non-Toxic	0	Non-Toxic	0	Activity (Danio rerio [15]): 0%; Activity (Danio rerio [16]): 0%; Activity (Danio rerio [17]): 75%; Activity (Danio rerio [18]): 0%; Activity (Danio rerio [19]): 0%; mortality at 50 ug/ml [20]: 0%; Activity (Danio rerio [21]): 0%; Activity (Danio rerio [22]): 0%; Activity (Danio rerio [23]): 0%; Activity (Danio rerio [25]): 0%; Activity (Danio rerio [26]): 100%; Activity (Danio rerio [27]): 0%; Activity (Danio rerio [28]): 100%; Activity (Danio rerio [29]): 0%; Activity (Danio rerio [30]): 0%; mortality at 5 ug/ml [32]: 0%; Activity (Danio rerio [35]): 0%; Activity (Danio rerio [37]): 0%
O=c1cc(-c2ccccc2)c2ccc(O)cc2o1	0	0	0	0	Active	Non-Toxic	0	0	0	0	Non-Toxic	0	100	0	Non-Toxic	Dose-dependent effect and Tde	Non-Toxic	0	Non-Toxic	0	Activity (Danio rerio [15]): 0%; Activity (Danio rerio [16]): 0%; Activity (Danio rerio [17]): 100%; Activity (Danio rerio [18]): 0%; Activity (Danio rerio [19]): 0%; mortality at 50 ug/ml [20]: 0%; Activity (Danio rerio [21]): 0%; Activity (Danio rerio [22]): 0%; Activity (Danio rerio [23]): 0%; Activity (Danio rerio [25]): 0%; Activity (Danio rerio [26]): 100%; Activity (Danio rerio [27]): 0%; Activity (Danio rerio [28]): 100%; Activity (Danio rerio [29]): 0%; Activity (Danio rerio [30]): 0%; mortality at 5 ug/ml [32]: 0%; Activity (Danio rerio [35]): 0%; Activity (Danio rerio [37]): 0%
Oc1ccc(O)cc1 [HYDROQUINONE]	100	90	0	90	Active	–	100	100	30	100	Non-Toxic	100	0	0	30%	Dose-dependent effect and Tde	Non-Toxic	100	Non-Toxic	100	Activity (Danio rerio [15]): 36.7%; Activity (Danio rerio [16]): 100%; Activity (Danio rerio [17]): 0%; Activity (Danio rerio [18]): 0%; Activity (Danio rerio [19]): 0%; mortality at 50 ug/ml [20]: 100%; Activity (Danio rerio [21]): 0%; Activity (Danio rerio [22]): 100%; Activity (Danio rerio [25]): 80%; Activity (Danio rerio [26]): 0%; Activity (Danio rerio [28]): 0%; Activity (Danio rerio [29]): 0%; Activity (Danio rerio [30]): 100%; mortality at 5 ug/ml [32]: 0%; Activity (Danio rerio [35]): 0%; Activity (Danio rerio [37]): 80%
O=c1cc(CO)occ1O [KOJIC ACID]	–	–	–	–	–	Non-Toxic	0	–	–	0	Non-Toxic	–	–	–	Non-Toxic	Dose-dependent effect and Tde	Non-Toxic	0	Non-Toxic	0	Activity (Danio rerio [23]): 0%; Activity (Danio rerio [27]): 0%
